This assay deals with T1, PDE5 enzyme isolated from human platelets (Homo sapiens, UniProt O76074).
T1 construct: The PDE5 enzyme for use in the assay can be obtained from human platelets; from tissue; host or cells: human platelets
As to the kind of experiment: Alternative human platelet PDE5 enzyme inhibition scintillation proximity assay (Method 2). It counts as biochemical. The settings on record: cGMP substrate 50 nM, 60 minutes at room temperature. The text has this:
The IC50 of a test compound can be measured using an in vitro assay using PDE5 enzyme isolated from human platelets. The IC50 is the concentration of test compound required to inhibit the hydrolysis of cGMP to GMP by the PDE5 enzyme by 50% relative to the activity of uninhibited controls. The PDE5 enzyme for use in the assay can be obtained from human platelets by appropriate modification of the method of Thompson, W J et al.; Biochemistry 18(23), 5228-5237, 1979, as described by Ballard S A et al.; J. Urology 159(6), 2164-2171, 1998. The PDE5 enzyme so obtained can be used to catalyze the hydrolysis of [^3H]cGMP (Amersham Biosciences) to 5′ nucleotide [^3H]GMP. The [^3H]GMP binds to yttrium silicate SPA beads (Amersham Biosciences) and is detected by scintillation counting. More specifically, the effect of a test compound at different concentrations can be evaluated in the assay by contacting the compound with a fixed amount of PDE5 enzyme in the presence of substrate (cGMP […] in a 3:1 ratio unlabelled to [^3H]-labeled). Scintillation counting can be used as described above to determine relative PDE5 enzyme activity. The inhibition of PDE5 enzyme activity is then calculated relative to total PDE5 enzyme activity of uninhibited controls.
Method 2: Alternative Human Platelet PDE5 Enzyme Inhibition Scintillation Proximity Assay
PDE5 IC50 Assay: 96-Well Microtiter Plate Format
Buffer A: 20 mM Tris-HCl, 5 mM MgCl2, pH 7.4
Buffer B: 2 mg/ml BSA in Buffer A (enzyme buffer)
cGMP substrate: Final concentration of 50 nM in assay
The amount of ^3H-labeled substrate added depends upon the specific activity of [^3H]cGMP, and it is diluted in Buffer A.
PDE enzyme: Prepared in Buffer B. The dilution factor is determined by enzyme activity.
SPA beads: 4 mg/ml suspension prepared in dH2O.
Stocks of standard and test compound are prepared at 2 mM in 100% DMSO. The test compound is serially diluted in a dilution plate using an 8-point ⅕ log dilution format such that the starting concentration in the assay is 2 μM for an initial IC50 screen. 27 μl of Buffer A are added to the wells of the assay plates. From the dilution plate, 3 μl of diluted compound is delivered in duplicate or 3 μl of 100% DMSO (for positive and negative controls) are added. 30 μl of enzyme are added. For the negative control wells, Buffer B is substituted in place of the enzyme. 30 μl of labeled substrate are added to all wells.
After incubating for 60 minutes at room temperature, the reaction is stopped with the addition of 30 μl of the yttrium silicate beads. These beads are dense and require constant agitation while being added to the plate. The plates are sealed and shaken on a plate shaker for fifteen minutes to allow the beads to bind the GMP product.
After allowing the beads to settle for 30 minutes, plates are read on a NXT TopCount scintillation counter and the data are analyzed as follows. Percent inhibition values are calculated using the means of the 0% and 100% controls on each plate. The estimates of the 4-parameters of the logistic, sigmoid dose-response model are then calculated using the well-level percent inhibition value for the compound. The formula for the four-parameter logistic model may be expressed as Y=((a−d)/(1+(X/c)^b))+d, where Y is the response, X is the concentration, a is the lower asymptote (minimum response), d is the upper asymptote (maximum response), c is the model IC50 (in the same units as X), and b is the slope (as described in De Lean, A., P. J. Munson, and D. Rodbard (“Simultaneous analysis of families of sigmoidal curves: application to bioassay, radioligand assay, and physiological dose-response curves.” Am. J. Physiol. 235(2): E97-E102, 1978). These estimates are used to calculate the concentration that corresponds to 50% inhibition.
Compounds were tested in accordance with Method 2 above yielding the IC50 values described in Table C.

SMILES strings stand for the structures.

As a reminder, the IC50 is the point on the concentration scale where inhibition reaches its midpoint.

The compound `CCCOCCn1c(=O)c(N2CCCC(O)C2)nc2cnc(-c3ccc(OC)nc3)cc21` (stereo not drawn) [Example 4, 3-(3-hydroxypiperidin-1-yl)-7-(6-methoxypyridin-3-yl)-1-(2-propoxyethyl)pyrido[3,4-b]pyrazin-2(1H)-one] came in with an IC50 of 0.225 nM.
To `CCCOCCn1c(=O)c(N2CCN(CCO)CC2)nc2cnc(-c3ccc(S(=O)(=O)CC)cc3)cc21` [Example 19, 7-(4-(ethylsulfonyl)phenyl)-3-(4-(2-hydroxyethyl)piperazin-1-yl)-1-(2-propoxyethyl)pyrido[3,4-b]pyrazin-2(1H)-one] belongs 102 nM.
To `CCCOCCn1c(=O)c(N2CCC(O)C2)nc2cnc(-c3ccc(OC)nc3)cc21` (stereo not drawn) [Example 42, 3-(3-hydroxypyrrolidin-1-yl)-7-(6-methoxypyridin-3-yl)-1-(2-Propoxyethyl)pyrido[3,4-b]pyrazin-2(1H)-one] belongs 0.421 nM; to `CCCOCCn1c(=O)c(N2CCN(CCO)CC2)nc2cnc(-c3ccc(CO)cc3)cc21` [Example 23, 3-(4-(2-hydroxyethyl)piperazin-1-yl)-7-(4-(hydroxymethyl)phenyl)-1-(2-propoxyethyl)pyrido[3,4-b]pyrazin-2(1H)-one], 1790 nM; to `CCCOCCn1c(=O)c(N2CCN(CCO)CC2)nc2cnc(-c3ccc(F)c(C)c3)cc21` [Example 25, 7-(4-fluoro-3-methylphenyl)-3-(4-(2-hydroxyethyl)piperazin-1-yl)-1-(2-propoxyethyl)pyrido[3,4-b]pyrazin-2(1H)-one], 1.87 nM.
To `CCCOCCn1c(=O)c(N2CCN(CCO)CC2)nc2cnc(-c3ccc(OC)c(F)c3)cc21` [Example 33, 7-(3-fluoro-4-methoxyphenyl)-3-(4-(2-hydroxyethyl)piperazin-1-yl)-1-(2-propoxyethyl)pyrido[3,4-b]pyrazin-2(1H)-one] belongs 13.6 nM; to `CCCOCCn1c(=O)c(N2CCC(C(N)=O)CC2)nc2cnc(-c3ccc(OC)nc3)cc21` [Example 41, 1-(1,2-dihydro-7-(6-methoxypyridin-3-yl)-2-oxo-1-(2-propoxyethyl)pyrido[3,4-b]pyrazin-3-yl)piperidine-4-carboxamide], 0.249 nM.
Take `CCCOCCn1c(=O)c(N2CCN(CCO)CC2)nc2cnc(-c3ccc(C)cc3)cc21` [Example 27, 3-(4-(2-hydroxyethyl)piperazin-1-yl)-1-(2-propoxyethyl)-7-p-tolylpyrido[3,4-b]pyrazin-2(1H)-one]: the midpoint of inhibition, the IC50, lay at 9.31 nM.
The figure for `CCCOCCn1c(=O)c(N2CCN(CCO)CC2)nc2cnc(-c3cccnc3)cc21` [Example 31, 3-(4-(2-hydroxyethyl)piperazin-1-yl)-1-(2-propoxyethyl)-7-(pyridin-3-yl)pyrido[3,4-b]pyrazin-2(1H)-one] is 45.8 nM.
As to `CCCOCCn1c(=O)c(N2CCN(CCO)CC2)nc2cnc(-c3ccc(OC)nc3)cc21` [Example 5, 3-[4-(2-hydroxyethyl)piperazin-1-yl]-7-(6-methoxypyridin-3-yl)-1-(2-propoxyethyl)pyrido[3,4-b]pyrazin-2(1H)-one], the midpoint of inhibition, the IC50, lay at 0.203 nM.
The figure for `CCCOCCn1c(=O)c(N2CCN(CCO)CC2)nc2cnc(-c3ccc(O)cc3)cc21` [Example 14, 3-(4-(2-hydroxyethyl)piperazin-1-yl)-7-(4-hydroxyphenyl)-1-(2-propoxyethyl)pyrido[3,4-b]pyrazin-2(1H)-one] is 832 nM.
The figure for `CCCOCCn1c(=O)c(N2CCCN(CCO)CC2)nc2cnc(-c3ccc(OC)nc3)cc21` [Example 12, 3-[4-(2-hydroxyethyl)-1,4-diazepan-1-yl]-7-(6-methoxypyridin-3-yl)-1-(2-propoxyethyl)pyrido[3,4-b]pyrazin-2(1H)-one] is 0.721 nM.
`CCCOCCn1c(=O)c(N2CCN(CCO)CC2)nc2cnc(-c3cccc(C)c3)cc21` [Example 36, 3-(4-(2-hydroxyethyl)piperazin-1-yl)-1-(2-propoxyethyl)-7-m-tolylpyrido[3,4-b]pyrazin-2(1H)-one] gave a 50% inhibitory concentration (IC50) of 423 nM.
In the case of `CCCOCCn1c(=O)c(N2CCN(CCO)CC2)nc2cnc(-c3ccc(OC)cc3)cc21` [Example 17, 3-(4-(2-hydroxyethyl)piperazin-1-yl)-7-(4-methoxyphenyl)-1-(2-propoxyethyl)pyrido[3,4-b]pyrazin-2(1H)-one], the IC50 was 7.71 nM.
The figure for `CCCOCCn1c(=O)c(N2CCN(CC(=O)OC(C)(C)C)CC2)nc2cnc(-c3ccc(OC)nc3)cc21` [Example 7, tert-butyl {4-[7-(6-methoxypyridin-3-yl)-2-oxo-1-(2-propoxyethyl)-1,2-dihydropyrido[3,4-b]pyrazin-3-yl]piperazin-1-yl}acetate] is 0.083 nM; for `CCCOCCn1c(=O)c(N2CCN(CCO)CC2)nc2cnc(-c3ccc(OC(C)C)cc3)cc21` [Example 21, 3-(4-(2-hydroxyethyl)piperazin-1-yl)-7-(4-isopropoxyphenyl)-1-(2-propoxyethyl)pyrido[3,4-b]pyrazin-2(1H)-one] it is 413 nM.
The figure for `CCCOCCn1c(=O)c(N2CCN(CCO)CC2)nc2cnc(-c3cccc(OCC)c3)cc21` [Example 32, 7-(3-ethoxyphenyl)-3-(4-(2-hydroxyethyl)piperazin-1-yl)-1-(2-propoxyethyl)pyrido[3,4-b]pyrazin-2(1H)-one] is 158 nM.
To `CCCOCCn1c(=O)c(N2CCN(CCO)CC2)nc2cnc(-c3cc(Cl)ccc3F)cc21` [Example 34, 7-(5-chloro-2-fluorophenyl)-3-(4-(2-hydroxyethyl)piperazin-1-yl)-1-(2-propoxyethyl)pyrido[3,4-b]pyrazin-2(1H)-one] belongs 12.6 nM.
The compound `CCCOCCn1c(=O)c(N2CCN([C@@H](C)[C@@H](C)O)CC2)nc2cnc(-c3ccc(OC)nc3)cc21` [Example 44, 3-(4-((2S,3R)-3-hydroxybutan-2-yl)piperazin-1-yl)-7-(6-methoxypyridin-3-yl)-1-(2-propoxyethyl)pyrido[3,4-b]pyrazin-2(1H)-one] had a half-inhibitory concentration (IC50) of 0.33 nM.
To `CCCOCCn1c(=O)c(N2CCN(CCO)CC2)nc2cnc(-c3cccc(OC)c3)cc21` [Example 29, 3-(4-(2-hydroxyethyl)piperazin-1-yl)-7-(3-methoxyphenyl)-1-(2-propoxyethyl)pyrido[3,4-b]pyrazin-2(1H)-one] belongs 3.07 nM; to `CCCOCCn1c(=O)c(N2C[C@H]3C[C@@H]2CN3)nc2cnc(-c3ccc(OC)nc3)cc21` [Example 2, 3-[(1R,4R)-2,5-diazabicyclo[2.2.1]hept-2-yl]-7-(6-methoxypyridin-3-yl)-1-(2-propoxyethyl)pyrido[3,4-b]pyrazin-2(1H)-one], 2.38 nM.
To `CCCOCCn1c(=O)c(N2CCN(CCO)CC2)nc2cnc(-c3cccc(F)c3F)cc21` [Example 26, 7-(2,3-difluorophenyl)-3-(4-(2-hydroxyethyl)piperazin-1-yl)-1-(2-propoxyethyl)pyrido[3,4-b]pyrazin-2(1H)-one] belongs 47.1 nM; to `CCCOCCn1c(=O)c(N2CCN(CCO)CC2)nc2cnc(-c3ccc(C(C)=O)s3)cc21` [Example 28, 7-(5-acetylthiophen-2-yl)-3-(4-(2-hydroxyethyl)piperazin-1-yl)-1-(2-propoxyethyl)pyrido[3,4-b]pyrazin-2(1H)-one], 43.1 nM.
The figure for `CCCOCCn1c(=O)c(N2CCCC(C(N)=O)C2)nc2cnc(-c3ccc(OC)nc3)cc21` (stereo not drawn) [Example 40, 1-(1,2-dihydro-7-(6-methoxypyridin-3-yl)-2-oxo-1-(2-propoxyethyl)pyrido[3,4-b]pyrazin-3-yl)piperidine-3-carboxamide] is 0.296 nM.

Values taken from patent US7902195B2, “Pyridine [3,4-b] pyrazinones” (Pharmacia & Upjohn Company LLC, priority 2006, dated 2011).
